US12576099B2, “Ribose-modified cap analog and use thereof” (Beijing Youcare Kechuang Pharmaceutical Technology Co., Ltd., priority 2024, dated 2026)

Tests used:
HEK293T cells = experiment: Translation efficiency of different capped luciferase mRNAs; type: cell-based; conditions: for Relative fluorescence intensity: HEK293T, 0.5 μg mRNA per well, 24 hours, proportional to translation efficiency; for Multiple of m6A (relative fluorescence intensity): relative to m6A
Outline: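 HEK293T cells were transfected with 0.5 μg capped luciferase mRNA per well (Lipofectamine MessengerMAX) and cultured 24 h at 37 °C. Lysates were mixed with Dual-Lumi II reagent for 5 min at about 25 °C; luminescence served as the measure of translation efficiency.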

T7 RNA polymerase = T7 RNA polymerase (Escherichia phage T7, UniProt P00573); experiment: In vitro transcription yield of mRNA using cap analogs; type: biochemical; conditions: for Yield per unit template: in vitro transcription, 1 μg DNA template, 37° C., 2 hours
Procedure: • (1) Capping synthesis using cap analogs
The plasmid was first linearized with plasmid linearizing enzyme, and then the linearized plasmid was purified. • (2) In vitro transcription and synthesis of mRNA
During the experiment, the volume of materials required for the system was first calculated, and then sample addition was conducted. The system was first added with sterile enzyme-free water, followed by the sequential addition of 10× buffer, NTPs, and cap analogs, mixed well, and gently centrifuged. Nuclease inhibitors, inorganic pyrophosphatase, T7RNA polymerase, and linearized DNA templates were then added thereto. The system was mixed well, gently centrifuged, and incubated at 37° C. After 2 hours of incubation, the system was added with 1 U of DNase I and incubated at 37° C. for another 30 minutes. The mRNA precipitate was then washed with 75% ethanol, and after the ethanol was briefly evaporated to dryness, the mRNA was redissolved in sterile enzyme-free water. • (3) The transcription product was purified, and the in vitro transcription yield of mRNA was recorded. • (4) The obtained mRNA was subjected to an annealing reaction with a probe.

[1] = Characterization of lipid nanoparticles encapsulating Fluc-mRNA prepared from different cap structures; type: physicochemical; conditions: for Particle size: LNP (YK-009/DSPC/cholesterol/DMG-PEG2000) with Fluc-mRNA transcribed using the named cap analog; for PDI: LNP with Fluc-mRNA transcribed using the named cap analog; for EE: encapsulation efficiency of LNP with Fluc-mRNA transcribed using the named cap analog
Outline: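 LNPs of YK-009/DSPC/cholesterol/DMG-PEG2000 (49:10:39.5:1.5) made by microfluidic mixing with Fluc-mRNA in 50 mM citrate pH 4, lipid:mRNA ~15:1 w/w, then ultrafiltered into PBS and 0.2 μm filtered. Size and PDI by DLS (90°, 25 °C, triplicate); encapsulation efficiency by RiboGreen assay.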

Sequence of T7 RNA polymerase (P00573 whole entry): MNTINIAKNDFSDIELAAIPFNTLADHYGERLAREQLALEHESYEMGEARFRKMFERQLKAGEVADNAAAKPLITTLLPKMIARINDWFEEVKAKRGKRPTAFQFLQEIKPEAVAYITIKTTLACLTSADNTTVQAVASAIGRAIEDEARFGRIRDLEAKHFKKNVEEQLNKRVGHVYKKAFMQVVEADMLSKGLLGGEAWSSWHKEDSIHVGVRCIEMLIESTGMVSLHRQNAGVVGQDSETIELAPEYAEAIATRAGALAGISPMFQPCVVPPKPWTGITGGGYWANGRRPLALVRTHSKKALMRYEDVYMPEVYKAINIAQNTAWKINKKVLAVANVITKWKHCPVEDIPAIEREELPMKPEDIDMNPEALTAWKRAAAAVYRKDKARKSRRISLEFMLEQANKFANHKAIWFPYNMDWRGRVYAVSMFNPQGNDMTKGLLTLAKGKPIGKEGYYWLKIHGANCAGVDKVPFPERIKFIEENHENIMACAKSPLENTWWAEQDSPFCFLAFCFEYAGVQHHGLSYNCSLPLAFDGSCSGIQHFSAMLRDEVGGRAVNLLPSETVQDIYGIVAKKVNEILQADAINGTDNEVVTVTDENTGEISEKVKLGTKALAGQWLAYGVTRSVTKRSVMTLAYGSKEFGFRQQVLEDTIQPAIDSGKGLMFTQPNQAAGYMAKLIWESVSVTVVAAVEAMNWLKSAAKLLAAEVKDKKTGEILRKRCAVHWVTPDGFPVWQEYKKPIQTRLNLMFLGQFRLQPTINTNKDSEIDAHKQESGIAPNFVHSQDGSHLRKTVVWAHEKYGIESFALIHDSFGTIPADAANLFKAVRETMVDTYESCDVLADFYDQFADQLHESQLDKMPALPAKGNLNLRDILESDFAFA

Compound	Relative fluorescence intensity (HEK293T cells)	Multiple of m6A (relative fluorescence intensity) (HEK293T cells)	Yield per unit template (T7 RNA polymerase) [µg]	Increase relative to 5227 (in vitro transcription yield) (T7 RNA polymerase) [%]	Particle size [1] [nm]	PDI [1]	EE [1] [%]
CO[C@@H]1[C@H](OP(=O)(O)OC[C@H]2O[C@@H](n3cnc4c(=O)[nH]c(N)nc43)[C@H](O)[C@@H]2O)[C@@H](COP(=O)(O)OP(=O)(O)OP(=O)(O)OC[C@@]2(OC)O[C@@H]([n+]3cn(C)c4c(=O)[nH]c(N)nc43)[C@H](O)[C@@H]2O)O[C@H]1n1cnc2c(N)ncnc21 [compound 5227, reference compound]	0.82	2.2	134.2	0	83.34	0.028	94.9
CO[C@@H]1[C@H](OP(=O)(O)OC[C@H]2O[C@@H](n3cnc4c(=O)[nH]c(N)nc43)[C@H](O)[C@@H]2O)[C@@H](COP(=O)(O)OP(=O)(O)OP(=O)(O)OC[C@@]2(C(F)F)O[C@@H]([n+]3cn(C)c4c(=O)[nH]c(N)nc43)[C@H](O)[C@@H]2O)O[C@H]1n1cnc2c(N)ncnc21 [YK-CAP-119]	1.45	3.8	154.2	14.9	82.45	0.057	94.6
CO[C@@H]1[C@H](OP(=O)(O)OC[C@H]2O[C@@H](n3cnc4c(=O)[nH]c(N)nc43)[C@H](O)[C@@H]2O)[C@@H](COP(=O)(O)OP(=O)(O)OP(=O)(O)OC[C@H]2O[C@@H]([n+]3cn(C)c4c(=O)[nH]c(N)nc43)[C@H](O)[C@@H]2C(C)F)O[C@H]1n1cnc2c(N)ncnc21 (stereo partly drawn) [YK-CAP-109]	1.53	4.0	168.1	25.3	86.35	0.035	97.2
